The text below walks through data of patent publication US5684023A, “Benzofuranyl -and benzothienyloxazolidinones” (Bayer Aktiengesellschaft, priority 1994, dated 1997).

Holding throughout (assay): MIC, serial dilution (Iso-Sensitest agar / microdilution in BH medium)
Type in all cases: cell-based

One assay relates to E. coli Neumann. The note with it: Escherichia coli, 37° C., about 20 hours. The procedure:
(§1) The minimum inhibitory concentrations (MIC) were determined by serial dilution methods on Iso-Sensitest agar (Oxoid). For each test substance, a number of agar plates were prepared which contained a decreasing concentration of the active compound on double dilution in each case. The agar plates were inoculated with a multipoint inoculator (Denley). For inoculation, overnight cultures of the bacilli were used which were previously diluted such that each inoculation point contained about 10^4 colony-forming particles. The inoculated agar plates were incubated at 37° C., and the bacterial growth was read off after about 20 hours. The MIC value (μg/ml) indicates the lowest active compound concentration at which no growth could be detected using the naked eye. The MIC values were determined in BH medium with the aid of the microdilution method. Each test substance was dissolved in the nutrient medium. A concentration series of the test substances was prepared in the microtiter plates by serial dilution. For inoculation, overnight cultures of the bacilli were used which had previously been diluted 1:250 in the nutrient medium. 100 μl each of inoculation solution were added to 100 μl of the diluted, active compound-containing nutrient solutions. The microtiter plates were incubated at 37° C. and read off after about 20 hours. The MIC value (μg/ml) indicates the lowest active compound concentration at which no growth could be detected.

The next assay relates to Klebs. 57 USA. The note with it: 37° C., about 20 hours. The procedure: as §1
The subject of the next assay is Psdm. Bonn. The note with it: 37° C., about 20 hours. As to the method: as §1
Another assay deals with Staph 25701. The note with it: 37° C., about 20 hours. The procedure:
as §1

The next assay relates to Staph 9TV. The conditions noted are these: 37° C., about 20 hours. The procedure: as §1
Another assay relates to Staph. 133. The note with it: 37° C., about 20 hours. The procedure:
as §1

Another assay has as its system Staph. 48N. The note with it: 37° C., about 20 hours. The procedure: as §1

In brackets after ≈: the same amount, converted by molar mass. Some results are limits rather than exact numbers.

One may read the MIC as the smallest concentration in the dilution series that meets the test's criterion for growth inhibition. Read a high MIC as a less susceptible organism. Consider `CC(=O)NC[C@H]1CN(c2ccc3sccc3c2)C(=O)O1` [Example 9, (5S)-3-[5-Benzo[b]thiophenyl]5-acetylamino-methyl-oxazolidin-2-one], for which the MIC against E. coli Neumann was more than 64 µg/mL; in the assay with Klebs. 57 USA it was more than 64 µg/mL; with Psdm. Bonn, more than 64 µg/mL; against Staph 25701 it was 2 µg/mL (≈ 6.89 µM); against Staph 9TV it was 2 µg/mL (≈ 6.89 µM); against Staph. 133, 4 µg/mL (≈ 13.8 µM). In the assay with Staph. 48N, the MIC turned out to be 4 µg/mL (≈ 13.8 µM).

As to `CC(=O)NC[C@H]1CN(c2ccc3oc(C)cc3c2)C(=O)O1` [Example 16], the minimum inhibitory concentration (MIC) in the assay on E. coli Neumann was more than 64 µg/mL; in the assay with Klebs. 57 USA, more than 64 µg/mL; in the assay with Psdm. Bonn, more than 64 µg/mL; against Staph 25701, 1 µg/mL (≈ 3.47 µM); against Staph 9TV, 0.5 µg/mL (≈ 1.73 µM); against Staph. 133 it was 1 µg/mL (≈ 3.47 µM). In the assay with Staph. 48N, this molecule gave a minimal inhibitory concentration (MIC) of 1 µg/mL (≈ 3.47 µM).

With `CC(=O)NC[C@H]1CN(c2ccc3c(c2)C=CS3(=O)=O)C(=O)O1` [Example 27], the minimum inhibitory concentration (MIC) against E. coli Neumann was more than 64 µg/mL; in the assay on Klebs. 57 USA, more than 64 µg/mL; in the assay with Psdm. Bonn it was more than 64 µg/mL; against Staph 25701 it was 16 µg/mL (≈ 49.6 µM); in the assay on Staph 9TV it was 8 µg/mL (≈ 24.8 µM); in the assay on Staph. 133, 16 µg/mL (≈ 49.6 µM). In the assay on Staph. 48N, this molecule yielded an MIC of 16 µg/mL (≈ 49.6 µM).
